Laboratory results reported in patent US10405547B2, “Substituted cyclic amides as herbicides” (FMC Corporation, priority 2015, dated 2019).

Experiments:
Format in all cases: in vivo
[1] = system: kochia (Kochia scoparia); assay: Test A postemergence, kochia; conditions: visual injury, 0 to 100 scale (0 no effect, 100 complete control), approximately 10 days
In short: (§1)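 Injury scores (0 no effect, 100 complete control) were assigned by visually comparing treated with untreated plants after about 10 days of greenhouse growth. Seeds for soil treatment were sown into a loam and sand blend, while plants for foliar treatment grew in pots of that same blend.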

[2] = system: corn (Zea mays); assay: Test A postemergence, corn; conditions: visual injury, 0 to 100 scale (0 no effect, 100 complete control), approximately 10 days
In short: as §1

[3] = system: foxtail, giant (Setaria faberii); assay: Test A postemergence, giant foxtail; conditions: visual injury, 0 to 100 scale (0 no effect, 100 complete control), approximately 10 days
In short: as §1

[4] = system: ryegrass, Italian (Lolium multiflorum); assay: Test A preemergence, Italian ryegrass; conditions: 0 to 100 scale (0 no effect, 100 complete control)
In short: as §1

[5] = system: barnyardgrass (Echinochloa crus-galli); assay: Test A preemergence, barnyardgrass; conditions: 0 to 100 scale (0 no effect, 100 complete control)
In short: as §1

[6] = system: kochia (Kochia scoparia); assay: Test A preemergence, kochia; conditions: 0 to 100 scale (0 no effect, 100 complete control)
In short: as §1

[7] = system: ducksalad (Heteranthera limosa); assay: Test B flooded paddy test, ducksalad; conditions: 250 g ai/ha, applied to paddy water, visual rating after 13 to 15 days, scale 0 (no effect) to 100 (complete control)
In short: (§2)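 Pots were flooded to 3 cm above the soil surface at treatment, compound applied directly to the paddy water, and that depth held throughout. Plants were kept in a greenhouse for 13 to 15 days, then visually rated against untreated controls.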

[8] = system: ragweed (common ragweed, Ambrosia elatior); assay: Test A preemergence, ragweed; conditions: 0 to 100 scale (0 no effect, 100 complete control)
In short: as §1

[9] = system: ragweed (common ragweed, Ambrosia elatior); assay: Test A postemergence, ragweed; conditions: visual injury, 0 to 100 scale (0 no effect, 100 complete control), approximately 10 days
In short: as §1

[10] = system: pigweed (Amaranthus retroflexus); assay: Test A preemergence, pigweed; conditions: 0 to 100 scale (0 no effect, 100 complete control)
In short: as §1

[11] = system: sedge, umbrella (small-flower umbrella sedge, Cyperus difformis); assay: Test B flooded paddy test, umbrella sedge; conditions: 250 g ai/ha, applied to paddy water, visual rating after 13 to 15 days, scale 0 (no effect) to 100 (complete control)
In short: as §2

[12] = system: wheat (Triticum aestivum); assay: Test A postemergence, wheat; conditions: visual injury, 0 to 100 scale (0 no effect, 100 complete control), approximately 10 days
In short: as §1

[13] = system: galium (catchweed bedstraw, Galium aparine); assay: Test A postemergence, galium; conditions: visual injury, 0 to 100 scale (0 no effect, 100 complete control), approximately 10 days
In short: as §1

[14] = system: barnyardgrass (Echinochloa crus-galli); assay: Test A postemergence, barnyardgrass; conditions: visual injury, 0 to 100 scale (0 no effect, 100 complete control), approximately 10 days
In short: as §1

[15] = system: ryegrass, Italian (Lolium multiflorum); assay: Test A postemergence, Italian ryegrass; conditions: visual injury, 0 to 100 scale (0 no effect, 100 complete control), approximately 10 days
In short: as §1

[16] = system: barnyardgrass (Echinochloa crus-galli); assay: Test B flooded paddy test, barnyardgrass; conditions: 250 g ai/ha, applied to paddy water, visual rating after 13 to 15 days, scale 0 (no effect) to 100 (complete control)
In short: as §2

[17] = system: foxtail, giant (Setaria faberii); assay: Test A preemergence, giant foxtail; conditions: 0 to 100 scale (0 no effect, 100 complete control)
In short: as §1

[18] = system: pigweed (Amaranthus retroflexus); assay: Test A postemergence, pigweed; conditions: visual injury, 0 to 100 scale (0 no effect, 100 complete control), approximately 10 days
In short: as §1

[19] = system: rice (Oryza sativa); assay: Test B flooded paddy test, rice; conditions: 250 g ai/ha, applied to paddy water, visual rating after 13 to 15 days, scale 0 (no effect) to 100 (complete control)
In short: as §2

[20] = system: blackgrass (Alopecurus myosuroides); assay: Test A postemergence, blackgrass; conditions: visual injury, 0 to 100 scale (0 no effect, 100 complete control), approximately 10 days
In short: as §1

Structure (SMILES)	Plant response rating, Kochia ([1]; 125 g ai/ha)	Plant response rating, Kochia ([1]; 500 g ai/ha)	Plant response rating, Corn ([2]; 125 g ai/ha)	Plant response rating, Corn ([2]; 500 g ai/ha)	Plant response rating, Foxtail, Giant ([3]; 125 g ai/ha)	Plant response rating, Foxtail, Giant ([3]; 500 g ai/ha)	Plant response rating, Ryegrass, Italian ([4]; 125 g ai/ha)	Plant response rating, Ryegrass, Italian ([4]; 500 g ai/ha)	Plant response rating, Barnyardgrass ([5]; 125 g ai/ha)	Plant response rating, Barnyardgrass ([5]; 500 g ai/ha)	Plant response rating, Kochia ([6]; 125 g ai/ha)	Plant response rating, Kochia ([6]; 500 g ai/ha)	Plant response rating, Ducksalad (Flood) [7]	Plant response rating, Ragweed ([8]; 125 g ai/ha)	Plant response rating, Ragweed ([8]; 500 g ai/ha)	Plant response rating, Ragweed ([9]; 125 g ai/ha)	Plant response rating, Ragweed ([9]; 500 g ai/ha)	Plant response rating, Pigweed ([10]; 125 g ai/ha)	Plant response rating, Pigweed ([10]; 500 g ai/ha)	Plant response rating, Sedge, Umbrella (Flood) [11]	further results
O=C1NCC(c2cccc(OCC3OCCO3)c2)C1C(=O)Nc1ccccc1C(F)(F)F (stereo not drawn) [Compound 5]	0	0	0	0	20	50	0	0	0	50	0	0	65	0	0	0	0	0	30	0	Plant response rating, Wheat ([12]; 125 g ai/ha): 0; Plant response rating, Wheat ([12]; 500 g ai/ha): 0; Plant response rating, Galium ([13]; 125 g ai/ha): 0; Plant response rating, Galium ([13]; 500 g ai/ha): 0; Plant response rating, Barnyardgrass ([14]; 125 g ai/ha): 0; Plant response rating, Barnyardgrass ([14]; 500 g ai/ha): 20; Plant response rating, Ryegrass, Italian ([15]; 125 g ai/ha): 20; Plant response rating, Ryegrass, Italian ([15]; 500 g ai/ha): 20; Plant response rating, Barnyardgrass (Flood) [16]: 0; Plant response rating, Foxtail, Giant ([17]; 125 g ai/ha): 30; Plant response rating, Foxtail, Giant ([17]; 500 g ai/ha): 90; Plant response rating, Pigweed ([18]; 125 g ai/ha): 0; Plant response rating, Pigweed ([18]; 500 g ai/ha): 0; Plant response rating, Rice (Flood) [19]: 0; Plant response rating, Blackgrass ([20]; 125 g ai/ha): 0; Plant response rating, Blackgrass ([20]; 500 g ai/ha): 0
O=C1NCC(c2cccc(OCc3ccco3)c2)C1C(=O)Nc1ccccc1F (stereo not drawn) [Compound 10]	0	0	0	0	0	30	0	0	0	0	0	0	60	0	0	0	0	0	0	40	Plant response rating, Wheat ([12]; 125 g ai/ha): 0; Plant response rating, Wheat ([12]; 500 g ai/ha): 0; Plant response rating, Galium ([13]; 125 g ai/ha): 0; Plant response rating, Galium ([13]; 500 g ai/ha): 0; Plant response rating, Barnyardgrass ([14]; 125 g ai/ha): 10; Plant response rating, Barnyardgrass ([14]; 500 g ai/ha): 60; Plant response rating, Ryegrass, Italian ([15]; 125 g ai/ha): 0; Plant response rating, Ryegrass, Italian ([15]; 500 g ai/ha): 0; Plant response rating, Barnyardgrass (Flood) [16]: 0; Plant response rating, Foxtail, Giant ([17]; 125 g ai/ha): 0; Plant response rating, Foxtail, Giant ([17]; 500 g ai/ha): 0; Plant response rating, Pigweed ([18]; 125 g ai/ha): 0; Plant response rating, Pigweed ([18]; 500 g ai/ha): 0; Plant response rating, Rice (Flood) [19]: 0; Plant response rating, Blackgrass ([20]; 125 g ai/ha): 0; Plant response rating, Blackgrass ([20]; 500 g ai/ha): 0
CN1CC(c2cccc(Oc3ccc(C(F)(F)F)cn3)c2)C(C(=O)Nc2ccccc2F)C1=O (single isomer, unassigned) [Compound 43]	40	60	40	80	80	80	30	80	80	80	30	30	98	0	80	0	0	40	80	0	Plant response rating, Wheat ([12]; 125 g ai/ha): 30; Plant response rating, Wheat ([12]; 500 g ai/ha): 50; Plant response rating, Galium ([13]; 125 g ai/ha): 70; Plant response rating, Galium ([13]; 500 g ai/ha): 80; Plant response rating, Barnyardgrass ([14]; 125 g ai/ha): 90; Plant response rating, Barnyardgrass ([14]; 500 g ai/ha): 90; Plant response rating, Ryegrass, Italian ([15]; 125 g ai/ha): 0; Plant response rating, Ryegrass, Italian ([15]; 500 g ai/ha): 30; Plant response rating, Barnyardgrass (Flood) [16]: 50; Plant response rating, Foxtail, Giant ([17]; 125 g ai/ha): 90; Plant response rating, Foxtail, Giant ([17]; 500 g ai/ha): 90; Plant response rating, Pigweed ([18]; 125 g ai/ha): 30; Plant response rating, Pigweed ([18]; 500 g ai/ha): 50; Plant response rating, Rice (Flood) [19]: 15; Plant response rating, Blackgrass ([20]; 125 g ai/ha): 30; Plant response rating, Blackgrass ([20]; 500 g ai/ha): 50
O=C1NCC(c2ccccc2Cn2ccc(C(F)(F)F)n2)C1C(=O)Nc1ccccc1F (stereo not drawn) [Compound 59]	0	0	0	0	0	20	0	0	0	40	0	0	0	0	0	0	0	0	0	0	Plant response rating, Wheat ([12]; 125 g ai/ha): 0; Plant response rating, Wheat ([12]; 500 g ai/ha): 0; Plant response rating, Galium ([13]; 125 g ai/ha): 0; Plant response rating, Galium ([13]; 500 g ai/ha): 0; Plant response rating, Barnyardgrass ([14]; 125 g ai/ha): 0; Plant response rating, Barnyardgrass ([14]; 500 g ai/ha): 30; Plant response rating, Ryegrass, Italian ([15]; 125 g ai/ha): 0; Plant response rating, Ryegrass, Italian ([15]; 500 g ai/ha): 0; Plant response rating, Barnyardgrass (Flood) [16]: 0; Plant response rating, Foxtail, Giant ([17]; 125 g ai/ha): 0; Plant response rating, Foxtail, Giant ([17]; 500 g ai/ha): 50; Plant response rating, Pigweed ([18]; 125 g ai/ha): 0; Plant response rating, Pigweed ([18]; 500 g ai/ha): 0; Plant response rating, Rice (Flood) [19]: 0; Plant response rating, Blackgrass ([20]; 125 g ai/ha): 0; Plant response rating, Blackgrass ([20]; 500 g ai/ha): 0
CN1CC(c2cccc(OC(F)(F)C(F)OC(F)(F)F)c2)C(C(=O)Nc2ccccc2F)C1=O (stereo not drawn) [Compound 41]	20	60	0	40	50	70	20	60	20	90	30	60	100	20	70	0	0	70	90	0	Plant response rating, Wheat ([12]; 125 g ai/ha): 0; Plant response rating, Wheat ([12]; 500 g ai/ha): 40; Plant response rating, Galium ([13]; 125 g ai/ha): 40; Plant response rating, Galium ([13]; 500 g ai/ha): 60; Plant response rating, Barnyardgrass ([14]; 125 g ai/ha): 50; Plant response rating, Barnyardgrass ([14]; 500 g ai/ha): 50; Plant response rating, Ryegrass, Italian ([15]; 125 g ai/ha): 0; Plant response rating, Ryegrass, Italian ([15]; 500 g ai/ha): 20; Plant response rating, Barnyardgrass (Flood) [16]: 0; Plant response rating, Foxtail, Giant ([17]; 125 g ai/ha): 80; Plant response rating, Foxtail, Giant ([17]; 500 g ai/ha): 90; Plant response rating, Pigweed ([18]; 125 g ai/ha): 40; Plant response rating, Pigweed ([18]; 500 g ai/ha): 80; Plant response rating, Rice (Flood) [19]: 20; Plant response rating, Blackgrass ([20]; 125 g ai/ha): 0; Plant response rating, Blackgrass ([20]; 500 g ai/ha): 30
